From PubChem BioAssay (NCI)
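Where inhibition never reached the appropriate level, the endpoint shown equals the highest concentration tested. Otherwise, values were interpolated linearly from a five-concentration, 48-hour dose response in 96-well plates. TGI denotes the concentration required for complete inhibition of growth.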

What was measured:
Test in all cases: NCI-60 cell line screen, 48 h
U251 CNS = tested on: U251 CNS
HOP-62 NSCLC = tested on: HOP-62 NSCLC
HL-60(TB) leukemia = tested on: HL-60(TB) leukemia
A549 NSCLC = tested on: A549 NSCLC
MDA-MB-231 breast = tested on: MDA-MB-231 breast
SK-OV-3 ovarian = tested on: SK-OV-3 ovarian
MDA-MB-435 = tested on: MDA-MB-435
TK-10 renal = tested on: TK-10 renal
PC-3 prostate = tested on: PC-3 prostate
NCI-H226 lung = tested on: NCI-H226 lung
M14 melanoma = tested on: M14 melanoma
SK-MEL-5 melanoma = tested on: SK-MEL-5 melanoma
UACC-62 melanoma = tested on: UACC-62 melanoma
T-47D breast = tested on: T-47D breast
MALME-3M melanoma = tested on: MALME-3M melanoma
NCI-H522 lung = tested on: NCI-H522 lung
SK-MEL-2 melanoma = tested on: SK-MEL-2 melanoma
HCC-2998 colon = tested on: HCC-2998 colon
NCI-H460 lung = tested on: NCI-H460 lung
OVCAR-3 ovarian = tested on: OVCAR-3 ovarian
ACHN renal = tested on: ACHN renal
HS 578T breast = tested on: HS 578T breast
CAKI-1 renal = tested on: CAKI-1 renal
SW-620 colon = tested on: SW-620 colon
OVCAR-4 ovarian = tested on: OVCAR-4 ovarian
SN12C renal = tested on: SN12C renal
KM12 colon = tested on: KM12 colon
MOLT-4 leukemia = tested on: MOLT-4 leukemia
EKVX NSCLC = tested on: EKVX NSCLC
SR leukemia = tested on: SR leukemia
HOP-92 NSCLC = tested on: HOP-92 NSCLC
SNB-75 CNS = tested on: SNB-75 CNS
NCI/ADR-RES ovarian = tested on: NCI/ADR-RES ovarian
BT-549 breast = tested on: BT-549 breast
IGROV1 ovarian = tested on: IGROV1 ovarian
MCF7 breast = tested on: MCF7 breast
SK-MEL-28 melanoma = tested on: SK-MEL-28 melanoma
SF-295 CNS = tested on: SF-295 CNS
786-0 renal = tested on: 786-0 renal
COLO 205 colon = tested on: COLO 205 colon
SNB-19 CNS = tested on: SNB-19 CNS
K-562 leukemia = tested on: K-562 leukemia
DU-145 prostate = tested on: DU-145 prostate
HCT-116 colon = tested on: HCT-116 colon
RXF 393 renal = tested on: RXF 393 renal
HT29 colon = tested on: HT29 colon
RPMI-8226 leukemia = tested on: RPMI-8226 leukemia
A498 renal = tested on: A498 renal
SF-268 CNS = tested on: SF-268 CNS
CCRF-CEM leukemia = tested on: CCRF-CEM leukemia
HCT-15 colon = tested on: HCT-15 colon
OVCAR-8 ovarian = tested on: OVCAR-8 ovarian
LOX IMVI melanoma = tested on: LOX IMVI melanoma
OVCAR-5 ovarian = tested on: OVCAR-5 ovarian
NCI-H23 lung = tested on: NCI-H23 lung
SF-539 CNS = tested on: SF-539 CNS
UACC-257 melanoma = tested on: UACC-257 melanoma
UO-31 renal = tested on: UO-31 renal

CCOC(=O)/C=C\[C@H]1OC(C)(C)O[C@H]1[C@H](O)[C@H]1COC(C)(C)O1
TGI (U251 CNS): 32.6 µM | TGI (HOP-62 NSCLC): > 100 µM | TGI (HL-60(TB) leukemia): 62.4 µM | TGI (A549 NSCLC): > 100 µM | TGI (MDA-MB-231 breast): 33.9 µM | TGI (SK-OV-3 ovarian): > 100 µM | TGI (MDA-MB-435): 35 µM | TGI (TK-10 renal): 30.8 µM | TGI (PC-3 prostate): 37.6 µM | TGI (NCI-H226 lung): > 100 µM | TGI (M14 melanoma): 33 µM | TGI (SK-MEL-5 melanoma): 33.5 µM | TGI (UACC-62 melanoma): 60.7 µM | TGI (T-47D breast): 46.7 µM | TGI (MALME-3M melanoma): 41.7 µM | TGI (NCI-H522 lung): 29.7 µM | TGI (SK-MEL-2 melanoma): 52.4 µM | TGI (HCC-2998 colon): 28.6 µM | TGI (NCI-H460 lung): > 100 µM | TGI (OVCAR-3 ovarian): 32.2 µM | TGI (ACHN renal): 32.6 µM | TGI (HS 578T breast): 93.2 µM | TGI (CAKI-1 renal): 7.88 µM | TGI (SW-620 colon): 36.8 µM | TGI (OVCAR-4 ovarian): 46.5 µM | TGI (SN12C renal): 33.5 µM | TGI (KM12 colon): > 100 µM | TGI (MOLT-4 leukemia): 40.5 µM | TGI (EKVX NSCLC): 50.1 µM | TGI (SR leukemia): 37.2 µM | TGI (HOP-92 NSCLC): 31.3 µM | TGI (SNB-75 CNS): 13.3 µM | TGI (NCI/ADR-RES ovarian): > 100 µM | TGI (BT-549 breast): 42.2 µM | TGI (IGROV1 ovarian): 37.7 µM | TGI (MCF7 breast): 40.7 µM | TGI (SK-MEL-28 melanoma): 35.6 µM | TGI (SF-295 CNS): > 100 µM | TGI (786-0 renal): 39.2 µM | TGI (COLO 205 colon): 32.3 µM | TGI (SNB-19 CNS): > 100 µM | TGI (K-562 leukemia): 44.7 µM | TGI (DU-145 prostate): > 100 µM | TGI (HCT-116 colon): 39 µM | TGI (RXF 393 renal): 35 µM | TGI (HT29 colon): 46.1 µM | TGI (RPMI-8226 leukemia): 42.3 µM | TGI (A498 renal): 37.6 µM | TGI (SF-268 CNS): 72.6 µM | TGI (CCRF-CEM leukemia): 39 µM | TGI (HCT-15 colon): 33.1 µM | TGI (OVCAR-8 ovarian): > 100 µM | TGI (LOX IMVI melanoma): 39.9 µM | TGI (OVCAR-5 ovarian): 32.6 µM | TGI (NCI-H23 lung): 50.1 µM | TGI (SF-539 CNS): 32.1 µM | TGI (UACC-257 melanoma): 55.5 µM | TGI (UO-31 renal): 34.4 µM
